What was measured:
wild type dogs = conditions: dog, in vivo
Procedure: For mice muscles, histopathological assessment was performed as earlier described. For canine samples, CS, lateral gastrocnemius, vastus lateralis, and diaphragm muscles were assessed at the end of the 4-month treatment period when dogs were necropsied. Muscle samples were snap frozen in isopentane cooled in liquid nitrogen, and stored at -80°C. A total of 16 dogs (3 wild type, 2 wild type + NBD, 5 untreated GRMD, and 6 GRMD + NBD) were assessed. Serial frozen sections (n = 10 per dog) from each muscle were processed. For each stain, quantitation was performed on three 10 μm sections of each muscle. To determine the degree of inflammation, cells that stained with a canine specific macrophage PM2K antibody were quantitated. Muscle damage was assessed by scoring for IgG-positive myofibers using immunofluorescence, and necrotic foci by hematoxylin and eosin (H&E) staining. Centrally located nuclei (CLN) were quantified on H&E sections to determine the degree of regeneration. Staining was quantitated on an Olympus BX51 microscope with Microsuite Five software (Olympus Soft Imaging Solutions GmbH, Center Valley, PA, USA). A composite score for all four muscles, reflecting muscle injury, inflammation, and regeneration, was determined.

wild type and GRMD dogs = conditions: dog, in vivo
Text: Necropsies were completed on all six of the NBD-treated GRMD dogs and two of the wild type dogs. Sections of kidney, liver, spleen, lung, heart (right and left ventricle), popliteal lymph node, adrenal gland, thyroid, duodenum, large intestine, pancreas, stomach, and cerebrum were collected and fixed in 10% buffered formalin. Tissues were sent to Histo-Scientific Research Laboratories in Frederick, MD, USA, a contract research laboratory where they were processed, embedded in paraffin, sectioned, and stained with H&E. An American College of Veterinary Pathology-certified pathologist evaluated slides.

TALDWSWLQTE [NBD, NBD peptide (…) fused to an Antennapedia protein transduction domain]
Histopathological lesions in NBD treated versus untreated wild type dogs (wild type dogs): negligible | Necropsy findings (wild type and GRMD dogs): histopathological changes related to NBD
